The values below come from patent US20210322327A1, “EXTRACELLULAR VESICLES COMPRISING STING-AGONIST” (Codiak BioSciences, Inc., priority 2018, published 2021).

The structures appear in SMILES notation.

Series [1] concerns human peripheral blood mononuclear cells (PBMCs). Description: IFNβ production in PBMCs treated with exosome-encapsulated or free STING agonist. The class given is cell-based. The settings on record: free STING agonists, human PBMCs overnight. Here is the method: Exosome-encapsulated STING agonist and free STING agonist were tested for activity in human peripheral blood mononuclear cells (PBMCs). PBMCs were isolated from fresh human blood by centrifugation over a layer of Lymphoprep at 1000×g for 15 minutes. The resulting buffy coat was washed in PBS and counted. PBMCs were plated in 96-well U-bottom plates. Titrations of the exosome-encapsulated (Exo-STING agonist) or free STING agonist were prepared in a separate U-bottom plate to perform dose-response studies. The exosome-encapsulated or free STING agonist was added to the PBMCs and incubated at 37° C. overnight. General activation of PBMCs by the STING agonist was detected by measuring the amount of IFNβ in the supernatant. […] To understand which cell types in PBMCs are differentially affected by Exo-STING agonist, monocyte and dendritic cell activation was measured. […] Monocytes were robustly activated by the STING agonist alone with over 90% becoming activated at micromolar concentrations of the agonist. […]
HEK293SF cells overexpressing PTGFRN were grown in shake flasks and the resulting exosomes were purified by Optiprep™ density gradient ultracentrifugation as described in the Methods. […] Loading was quantified as described in Example 1. […] Activation of PBMCs by the STING agonists was detected by measuring the amount of IFNβ in the supernatant. […]

In series [2] the test system is IFNβ, CXCL9, CXCL10, IFNγ; serum cytokines. Briefly: Cytokine levels after subcutaneous injection in naïve mice. The class given is in vivo, C57BL/6 mice. The following applies: 20 μg free, four hours. Here is the method: To compare in vivo activity of free STING agonist and STING agonist-loaded exosomes beyond intratumoral dosing, naïve C57BL/6 mice were injected subcutaneously with PBS, exosomes, 20 μg of free 3-3 cAIMPdFSH or 0.2 μg 3-3 cAIMPdFSH loaded in PTGFRN-overexpressing exosomes. Four hours post-injection, lymph nodes, spleens, livers, and serum were collected and cytokine levels were measured.

In a further series the test system is STING pathway. Briefly: Cytokine levels after single intratumoral dose in C57BL/6 and STING knock-out tumor-bearing mice. The class given is in vivo, C57BL/6 mice and C57BL/6-Tmem173^gt mice. The settings on record: C57BL/6 mice; 20 μg intratumoral, four hours. On the procedure: Three groups of C57BL/6 mice and C57BL/6-Tmem173^gt mice (4-5 mice per group) were inoculated subcutaneously with 1×10^6 B16F10 tumor cells. Eight days post-inoculation the mice were injected with a single intratumoral dose of PBS, 20 μg of free 3-3 cAIMPdFSH, or 0.1 μg of 3-3 cAIMPdFSH loaded in PTGFN-overexpressing exosomes (exeSTING). Four hours post-injection the tumors, draining lymph nodes, spleens, and serum were collected and cytokine levels were measured. […] In addition to gene expression, serum cytokine profiles are showing same trend (FIG. 58).

A short description of series [3]: Tumor pharmacokinetics after intratumoral injection. The class given is in vivo, C57BL/6 mice. The following applies: B16F10 tumor. On the procedure: To examine the tumor pharmacokinetics of STING agonist, C57BL/6 mice were inoculated subcutaneously with 1×10^6 B16F10 murine melanoma cells (n=3 mice per group and time). Eight days post-inoculation, the tumors were injected intratumorally with 30 μg of free 3-3 cAIMPdFSH, 0.3 μg of free 3-3 cAIMPdFSH, or 0.3 μg 3-3 cAIMPdFSH loaded in PTGFRN-overexpressing exosomes. Five minutes, thirty minutes, two hours, 6 hours, 24 hours, and 48 hours after injection, tumors were excised and lysed with 6 volume of plasma. The concentration of 3-3 cAIMPdFSH was measured by LC-MS/MS, as described in Example 1. Free 3-3 cAIMPdFSH in both 30 μg and 0.3 μg was disappeared quickly from tumor, having half-life of around 10 minutes.

Series [4] relates to B16F10 murine melanoma cells. Briefly: B16F10 primary tumor and re-challenge, durable T cell responses. The class given is in vivo, C57BL/6 mice. On the procedure:
Six, nine, and twelve days post-inoculation, the tumors were injected intratumorally with PBS, exosomes, 100 μg of free ML RR-S2 CDA, or 0.2 μg 3-3 cAIMPdFSH loaded in PTGFRN-overexpressing exosomes. […] Five additional naïve mice were inoculated with the same tumor cell preparation and treated daily with PBS to ensure cell viability and growth kinetics. By day 37 (17 days post-challenge) all mice in the PBS group were sacrificed.

For `Nc1ncnc2c1ncn2[C@@H]1O[C@@H]2COP(=O)(S)O[C@H]3[C@@H](F)[C@H](n4cnc5c(=O)[nH]cnc54)O[C@@H]3COP(O)(=S)O[C@H]2[C@H]1F` (some centres unmarked) [3-3 cAIMPdFSH, 3′3′-cAIMPdFSH], the IFNβ induction entry in series [1] was “induced IFNβ to a similar extent”. Also, in series [2], the “IFNβ gene expression in lymph nodes, spleens, livers” value is given as “significantly elevated”. In addition, in the series on STING pathway, the “IFNβ gene expression in tumors, draining lymph node, spleen” value was “comparable in the 20 μg free STING agonist and 0.1 μg exosome-STING agonist groups”. For the same compound, the half-life in tumor result in series [3] (0.3 μg free) and in series [3] (30 μg free) was “around 10 minutes” each time.
Turning to `Nc1ncnc2c1ncn2[C@@H]1O[C@@H]2COP(O)(=S)O[C@@H]3C(O)[C@@H](COP(O)(=S)O[C@H]2[C@H]1O)O[C@H]3n1cnc2c(N)ncnc21` (some centres unmarked) [ML RR-S2 CDA], the IFNβ induction result in series [1] is on record as “induced IFNβ to a similar extent”. In addition, the “animals in which re-challenge tumor growth was not inhibited” value in series [4] (100 μg free group, re-challenged day 20, read day 37) is recorded as 10 out of 10. In series [4] (100 μg free, intratumoral days 6, 9, 12), the “animals that showed complete response (primary tumor)” value is “ten”.
